Source: ChEMBL document CHEMBL2390940, “Synthesis and receptor binding studies of novel 4,4-disubstituted arylalkyl/arylalkylsulfonyl piperazine and piperidine-based derivatives as a new class of σ1 ligands” (Eur J Med Chem, 2013)

Assays:
[1] = Displacement of [3H]DTG from sigma2 receptor in Sprague-Dawley rat liver membrane after 150 mins by liquid scintillation counting analysis; format: cell membranes
[2] = biological target: Sigma non-opioid intracellular receptor 1 (Cavia porcellus, UniProt Q60492)
Chain of Sigma non-opioid intracellular receptor 1 (Q60492 whole entry): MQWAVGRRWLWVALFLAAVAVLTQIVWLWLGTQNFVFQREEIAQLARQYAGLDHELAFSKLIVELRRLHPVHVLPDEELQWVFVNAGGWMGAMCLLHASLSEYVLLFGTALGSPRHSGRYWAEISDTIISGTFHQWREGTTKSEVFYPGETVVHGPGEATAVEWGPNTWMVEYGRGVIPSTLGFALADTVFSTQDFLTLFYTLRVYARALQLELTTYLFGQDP

[3] = Binding affinity to sigma receptor (unknown origin); parameters: species or system Homo sapiens

| SMILES | Ki [1] [nM] | Ki [2] [nM] | Ki [3] [nM] |
| --- | --- | --- | --- |
| O=S(=O)(Cc1ccccc1)N1CCN(Cc2ccccc2)CC1 | 48.4 | 11.2 | – |
| O=S(=O)(/C=C/c1ccccc1)N1CCN(Cc2ccccc2)CC1 | 8140 | 201 | – |
| O=S(=O)(Cc1ccccc1)N1CCN(Cc2ccc(Br)cc2)CC1 | 288 | 13.4 | – |
| c1ccc(CN2CCN(Cc3ccccc3)CC2)cc1 | 1270 | – | – |
| c1ccc(CCCN2CCC(Cc3ccccc3)CC2)cc1 | 3.3 | 0.4 | – |
| OC[C@@H]1CN(CCc2ccccc2)CCN1Cc1ccccc1 | 177 | 38 | – |
| Clc1ccc(/C=C/CN2CCN(Cc3ccccc3)CC2)cc1 | – | – | 0.3 |
| O=S(=O)(Cc1cccc(Cl)c1)N1CCN(Cc2ccccc2)CC1 | 134 | 68.1 | – |
| O=S(=O)(Cc1cccc(Br)c1)N1CCN(Cc2ccccc2)CC1 | 148 | 29.9 | – |
| O=S(=O)(Cc1cccc(I)c1)N1CCN(Cc2ccccc2)CC1 | 88.8 | 2.7 | – |
| Cc1cccc(CS(=O)(=O)N2CCN(Cc3ccccc3)CC2)c1 | 89.4 | 35.9 | – |
| O=S(=O)(Cc1ccccc1)N1CCN(Cc2cccc(F)c2)CC1 | 181 | 68.7 | – |
| O=S(=O)(Cc1ccccc1)N1CCN(Cc2cccc(Cl)c2)CC1 | 174 | 51.8 | – |
| O=S(=O)(Cc1ccccc1)N1CCN(Cc2cccc(I)c2)CC1 | 117 | 1.8 | – |
| Cc1cccc(CN2CCN(S(=O)(=O)Cc3ccccc3)CC2)c1 | 151 | 15 | – |
| COc1ccc(CN2CCN(S(=O)(=O)Cc3ccccc3)CC2)cc1 | 2130 | 192 | – |
| O=S(=O)(Cc1ccccc1)N1CCC(Cc2ccccc2)CC1 | 38.9 | 9.9 | – |

| SMILES | Ki [1] [nM] | Ki [2] [nM] | Ki [3] [nM] |
| --- | --- | --- | --- |
| O=S(=O)(Cc1cccc(Cl)c1)N1CCC(Cc2ccccc2)CC1 | 199 | 40 | – |
| O=S(=O)(Cc1cccc(Br)c1)N1CCC(Cc2ccccc2)CC1 | 25.9 | 1.6 | – |
| O=S(=O)(Cc1cccc(I)c1)N1CCC(Cc2ccccc2)CC1 | 91.8 | 0.96 | – |
| Cc1cccc(CS(=O)(=O)N2CCC(Cc3ccccc3)CC2)c1 | 48.9 | 4.7 | – |
| O=S(=O)(c1ccccc1)N1CCC(Cc2ccccc2)CC1 | 56.7 | 24.3 | – |
| O=S(=O)(c1ccc(Cl)cc1)N1CCC(Cc2ccccc2)CC1 | 778 | 551 | – |
| O=S(=O)(c1ccc(Cl)cc1)N1CCN(Cc2ccccc2)CC1 | 1550 | 969 | – |
| O=S(=O)(CCc1ccccc1)N1CCC(Cc2ccccc2)CC1 | 187 | – | – |
| O=S(=O)(CCc1ccccc1)N1CCN(Cc2ccccc2)CC1 | 191 | 78.4 | – |
| O=S(=O)(/C=C/c1ccccc1)N1CCC(Cc2ccccc2)CC1 | 1960 | 138 | – |
| O=S(=O)(/C=C/c1ccc(Br)cc1)N1CCC(Cc2ccccc2)CC1 | 248 | 843 | – |
| O=S(=O)(/C=C/c1ccc(Br)cc1)N1CCN(Cc2ccccc2)CC1 | 485 | 1080 | – |
| O=S(=O)(c1ccccc1)N1CCN(Cc2ccccc2)CC1 | 87.1 | 28.4 | – |
| c1ccc(CCCN2CCN(Cc3ccccc3)CC2)cc1 | – | 20 | – |
| CC(C)=CCN1CC[C@]2(C)c3cc(O)ccc3C[C@H]1[C@H]2C [(+)-PENTAZOCINE] | 1870 | – | – |
| Cc1ccccc1NC(=N)Nc1ccccc1C [DITOLYLGUANIDINE] | 58.4 | – | – |
| O=C(CCCN1CCC(O)(c2ccc(Cl)cc2)CC1)c1ccc(F)cc1 [HALOPERIDOL] | 43.5 | – | – |
